Data published in the supplement of paper PMC10307832.

Experiments:
Assay in all cases: relative viability (nuclei count vs DMSO), 5 days (fraction); higher = more cells survive
NCI-H1975 = system: NCI-H1975
Method in brief: (§1)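 Each reported value is a median over duplicate plates. It expresses relative viability: treated-well nuclei count divided by vehicle-well nuclei count. Lung cancer cell lines in 1536-well plates were dosed by pin tool a day after seeding, alone with one drug or with a fixed anchor-drug dose plus five library-drug doses (not always all listed) in √10 steps, and nuclei were counted after 5 days.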

SK-LU-1 = system: SK-LU-1
Method in brief: as §1

NCI-H520 = system: NCI-H520
Method in brief: as §1

PC-3 [JPC-3] = system: PC-3 [JPC-3]
Method in brief: as §1

NCI-H2342 = system: NCI-H2342
Method in brief: as §1

NCI-H1792 = system: NCI-H1792
Method in brief: as §1

NCI-H1650 = system: NCI-H1650
Method in brief: as §1

NCI-H23 = system: NCI-H23
Method in brief: as §1

EKVX = system: EKVX
Method in brief: as §1

NCI-H661 = system: NCI-H661
Method in brief: as §1

NCI-H441 = system: NCI-H441
Method in brief: as §1

NCI-H460 = system: NCI-H460
Method in brief: as §1

NCI-H1437 = system: NCI-H1437
Method in brief: as §1

NCI-H1666 = system: NCI-H1666
Method in brief: as §1

NCI-H838 = system: NCI-H838
Method in brief: as §1

NCI-H322M = system: NCI-H322M
Method in brief: as §1

NCI-H596 = system: NCI-H596
Method in brief: as §1

NCI-H522 = system: NCI-H522
Method in brief: as §1

NCI-H727 = system: NCI-H727
Method in brief: as §1

NCI-H647 = system: NCI-H647
Method in brief: as §1

NCI-H1915 = system: NCI-H1915
Method in brief: as §1

LCLC-97TM1 = system: LCLC-97TM1
Method in brief: as §1

NCI-H358 = system: NCI-H358
Method in brief: as §1

For Cc1cn(-c2cc(NC(=O)c3ccc(C)c(Nc4nccc(-c5cccnc5)n4)c3)cc(C(F)(F)F)c2)cn1 [Nilotinib] + Cc1nc(Nc2ncc(C(=O)Nc3c(C)cccc3Cl)s2)cc(N2CCN(CCO)CC2)n1 [Dasatinib] (partner 0.075 µM), the relative viability (NCI-H1975; first compound 0.001 µM) was 0.312, the relative viability (NCI-H1975; first compound 0.003162 µM) was 0.39 and the relative viability (NCI-H1975; first compound 0.01 µM) was 0.309. The relative viability (NCI-H1975; first compound 0.03162 µM) was 0.318, the relative viability (NCI-H1975; first compound 0.1 µM) was 0.209 and the relative viability (SK-LU-1; first compound 0.001 µM) was 0.196. It also gave a relative viability (SK-LU-1; first compound 0.003162 µM) of 0.146, a relative viability (SK-LU-1; first compound 0.01 µM) of 0.21 and a relative viability (SK-LU-1; first compound 0.03162 µM) of 0.177. For the same compound, the relative viability (SK-LU-1; first compound 0.1 µM) was 0.177, the relative viability (NCI-H520; first compound 0.001 µM) was 0.224 and the relative viability (NCI-H520; first compound 0.003162 µM) was 0.171. It also gave a relative viability (NCI-H520; first compound 0.01 µM) of 0.198, a relative viability (NCI-H520; first compound 0.03162 µM) of 0.156 and a relative viability (NCI-H520; first compound 0.1 µM) of 0.147. The relative viability (PC-3 [JPC-3]; first compound 0.001 µM) was 0.95, the relative viability (PC-3 [JPC-3]; first compound 0.003162 µM) was 1.09 and the relative viability (PC-3 [JPC-3]; first compound 0.01 µM) was 1.1. It also gave a relative viability (PC-3 [JPC-3]; first compound 0.03162 µM) of 0.844, a relative viability (PC-3 [JPC-3]; first compound 0.1 µM) of 0.528 and a relative viability (NCI-H2342; first compound 0.001 µM) of 0.277. For the same compound, the relative viability (NCI-H2342; first compound 0.003162 µM) was 0.303, the relative viability (NCI-H2342; first compound 0.01 µM) was 0.302 and the relative viability (NCI-H2342; first compound 0.03162 µM) was 0.273. It also gave a relative viability (NCI-H2342; first compound 0.1 µM) of 0.298, a relative viability (NCI-H1792; first compound 0.001 µM) of 0.614 and a relative viability (NCI-H1792; first compound 0.003162 µM) of 0.591. It also gave a relative viability (NCI-H1792; first compound 0.01 µM) of 0.785, a relative viability (NCI-H1792; first compound 0.1 µM) of 1.36 and a relative viability (NCI-H1650; first compound 0.001 µM) of 0.335. For the same compound, the relative viability (NCI-H1650; first compound 0.003162 µM) was 0.32, the relative viability (NCI-H1650; first compound 0.01 µM) was 0.265 and the relative viability (NCI-H1650; first compound 0.03162 µM) was 0.321. The relative viability (NCI-H1650; first compound 0.1 µM) was 0.21, the relative viability (NCI-H23; first compound 0.001 µM) was 0.691 and the relative viability (NCI-H23; first compound 0.003162 µM) was 0.681. The relative viability (NCI-H23; first compound 0.01 µM) was 0.823, the relative viability (NCI-H23; first compound 0.03162 µM) was 0.309 and the relative viability (NCI-H23; first compound 0.1 µM) was 0.508. It also gave a relative viability (EKVX; first compound 0.001 µM) of 0.461, a relative viability (EKVX; first compound 0.003162 µM) of 0.477 and a relative viability (EKVX; first compound 0.01 µM) of 0.554. The relative viability (EKVX; first compound 0.03162 µM) was 0.467, the relative viability (EKVX; first compound 0.1 µM) was 0.432 and the relative viability (NCI-H661; first compound 0.001 µM) was 0.923. For the same compound, the relative viability (NCI-H661; first compound 0.003162 µM) was 0.956, the relative viability (NCI-H661; first compound 0.01 µM) was 0.921 and the relative viability (NCI-H661; first compound 0.03162 µM) was 0.635. It also gave a relative viability (NCI-H661; first compound 0.1 µM) of 0.613, a relative viability (NCI-H441; first compound 0.001 µM) of 0.523 and a relative viability (NCI-H441; first compound 0.003162 µM) of 0.712. For the same compound, the relative viability (NCI-H441; first compound 0.01 µM) was 0.632, the relative viability (NCI-H441; first compound 0.03162 µM) was 0.369 and the relative viability (NCI-H441; first compound 0.1 µM) was 0.417. For the same compound, the relative viability (NCI-H460; first compound 0.001 µM) was 0.487, the relative viability (NCI-H460; first compound 0.003162 µM) was 0.384 and the relative viability (NCI-H460; first compound 0.01 µM) was 0.65. The relative viability (NCI-H460; first compound 0.03162 µM) was 0.444, the relative viability (NCI-H460; first compound 0.1 µM) was 0.432 and the relative viability (NCI-H1437; first compound 0.001 µM) was 0.366. The relative viability (NCI-H1437; first compound 0.003162 µM) was 0.327, the relative viability (NCI-H1437; first compound 0.01 µM) was 0.373 and the relative viability (NCI-H1437; first compound 0.03162 µM) was 0.296. It also gave a relative viability (NCI-H1437; first compound 0.1 µM) of 0.164, a relative viability (NCI-H1666; first compound 0.001 µM) of 0.783 and a relative viability (NCI-H1666; first compound 0.003162 µM) of 0.886. The relative viability (NCI-H1666; first compound 0.01 µM) was 0.797, the relative viability (NCI-H1666; first compound 0.03162 µM) was 0.719 and the relative viability (NCI-H1666; first compound 0.1 µM) was 0.778. The relative viability (NCI-H838; first compound 0.001 µM) was 0.279, the relative viability (NCI-H838; first compound 0.003162 µM) was 0.302 and the relative viability (NCI-H838; first compound 0.01 µM) was 0.278. For the same compound, the relative viability (NCI-H838; first compound 0.03162 µM) was 0.268, the relative viability (NCI-H838; first compound 0.1 µM) was 0.291 and the relative viability (NCI-H322M; first compound 0.001 µM) was 0.295. It also gave a relative viability (NCI-H322M; first compound 0.003162 µM) of 0.279, a relative viability (NCI-H322M; first compound 0.03162 µM) of 0.282 and a relative viability (NCI-H322M; first compound 0.1 µM) of 0.234. For the same compound, the relative viability (NCI-H596; first compound 0.001 µM) was 0.485, the relative viability (NCI-H596; first compound 0.003162 µM) was 0.705 and the relative viability (NCI-H596; first compound 0.01 µM) was 0.507. It also gave a relative viability (NCI-H596; first compound 0.03162 µM) of 0.504, a relative viability (NCI-H596; first compound 0.1 µM) of 0.349 and a relative viability (NCI-H522; first compound 0.001 µM) of 0.851. It also gave a relative viability (NCI-H522; first compound 0.003162 µM) of 0.873, a relative viability (NCI-H522; first compound 0.01 µM) of 1.16 and a relative viability (NCI-H522; first compound 0.03162 µM) of 0.715. For the same compound, the relative viability (NCI-H522; first compound 0.1 µM) was 0.596, the relative viability (NCI-H727; first compound 0.001 µM) was 0.415 and the relative viability (NCI-H727; first compound 0.003162 µM) was 0.339. For the same compound, the relative viability (NCI-H727; first compound 0.01 µM) was 0.425, the relative viability (NCI-H727; first compound 0.03162 µM) was 0.41 and the relative viability (NCI-H727; first compound 0.1 µM) was 0.302. For the same compound, the relative viability (NCI-H647; first compound 0.001 µM) was 0.195, the relative viability (NCI-H647; first compound 0.003162 µM) was 0.274 and the relative viability (NCI-H647; first compound 0.01 µM) was 0.262. The relative viability (NCI-H647; first compound 0.03162 µM) was 0.101, the relative viability (NCI-H647; first compound 0.1 µM) was 0.0706 and the relative viability (NCI-H1915; first compound 0.001 µM) was 0.324. It also gave a relative viability (NCI-H1915; first compound 0.003162 µM) of 0.314, a relative viability (NCI-H1915; first compound 0.01 µM) of 0.354 and a relative viability (NCI-H1915; first compound 0.03162 µM) of 0.27. It also gave a relative viability (NCI-H1915; first compound 0.1 µM) of 0.141, a relative viability (LCLC-97TM1; first compound 0.001 µM) of 0.855 and a relative viability (LCLC-97TM1; first compound 0.003162 µM) of 0.896. The relative viability (LCLC-97TM1; first compound 0.01 µM) was 0.971, the relative viability (LCLC-97TM1; first compound 0.03162 µM) was 0.654 and the relative viability (LCLC-97TM1; first compound 0.1 µM) was 0.617. The relative viability (NCI-H358; first compound 0.001 µM) was 0.177, the relative viability (NCI-H358; first compound 0.003162 µM) was 0.153 and the relative viability (NCI-H358; first compound 0.01 µM) was 0.18. For the same compound, the relative viability (NCI-H358; first compound 0.03162 µM) was 0.178 and the relative viability (NCI-H358; first compound 0.1 µM) was 0.157.
